Pest or weed control data for 33 molecules are collected here from US9204653B2, “5-fluoro pyrimidine derivatives” (DOW AGROSCIENCES LLC, priority 2008, dated 2015).

The test system of the test is Mycosphaerella graminicola; Anamorph: Septoria tritici; Bayer Code SEPTTR. In words: Leaf blotch of wheat, foliar fungicide treatment, one day protectant (1DP) or three day curative (3DC). The conditions noted are these: Zymoseptoria tritici; for pest or weed control at 50 ppm / pest or weed control at 200 ppm: % disease control rating. It is filed as in vivo, Septoria tritici on wheat plants (variety Yuma).

[1] abbreviates: 24 h, one day protectant (1DP), 25 ppm (first 1DP column), percent control rating, read-out: SETTTR 1DP 25 ppm.
Where [2] appears, read: 24 h, one day protectant (1DP), 25 ppm as printed (second 1DP column), percent control rating, read-out: SETTTR 1DP 25 ppm.
The mark [3] stands for this setting: 72 h, three day curative (3DC), 25 ppm, percent control rating, read-out: SEPTTR 3DC 25 ppm.
The mark [4] stands for this setting: 72 h, three day curative (3DC), percent control rating, read-out: SEPTTR 3DC 100 ppm.
[5] abbreviates: 24 h, one day protectant, 25 ppm, rating of percent disease control, read-out: SETTTR 1DP 25 ppm.
Setting [6] is: 24 h, one day protectant, rating of percent disease control, read-out: SEPTTR 1DP 100 ppm.
Where [7] appears, read: 72 h, three day curative, 25 ppm, rating of percent disease control, read-out: SEPTTR 3DC 25 ppm.
[8] abbreviates: 72 h, three day curative, rating of percent disease control, read-out: SEPTTR 3DC 100 ppm.
Where [9] appears, read: 24 h, one day protectant (1DP), 25 ppm, rating of percent disease control, read-out: SETTTR 1DP 25 ppm.
[10] abbreviates: 24 h, one day protectant (1DP), rating of percent disease control, read-out: SEPTTR 1DP 100 ppm.
Setting [11] is: 72 h, three day curative (3DC), 25 ppm, rating of percent disease control, read-out: SEPTTR 3DC 25 ppm.
The mark [12] stands for this setting: 72 h, three day curative (3DC), rating of percent disease control, read-out: SEPTTR 3DC 100 ppm.
Where [13] appears, read: 24 h, one day protectant (1DP), 25 ppm, percent disease control rating, read-out: SETTTR 1DP 25 ppm.
Where [14] appears, read: 24 h, one day protectant (1DP), percent disease control rating, read-out: SEPTTR 1DP 100 ppm.
Setting [15] is: 72 h, three day curative (3DC), 25 ppm, percent disease control rating, read-out: SEPTTR 3DC 25 ppm.
Setting [16] is: 72 h, three day curative (3DC), percent disease control rating, read-out: SEPTTR 3DC 100 ppm.

Where two headings read alike, the source gives them in different places.

With `CS(=O)(=O)Nc1nc(OCc2ccccc2)ncc1F` [Compound 1008], the pest or weed control at 25 ppm runs as follows: under setting [1], 0 to 25%; under setting [2], 0 to 25%; under setting [3], 0 to 25%. Further, under setting [4], the pest or weed control at 100 ppm lay within 0 to 25%.
For `Cc1ccc(COc2ncc(F)c(NCc3ccccc3F)n2)cc1` [Compound 930], where the note is “24 h, one day protectant”, the pest or weed control at 50 ppm was in the range of 0 to 25% and the pest or weed control at 200 ppm is 76 to 100%.
Take `Nc1nc(OCc2ccc(Cl)cc2)ncc1F` [Compound 689]: the pest or weed control at 25 ppm by setting is: under setting [5], 76 to 100%; under setting [7], 76 to 100%. Moreover, the pest or weed control at 100 ppm was 76 to 100% under setting [6] and 76 to 100% under setting [8].
For `NNc1nc(OCc2ccc(F)cc2)ncc1F` [Compound 473], the pest or weed control at 25 ppm is 26 to 50% under setting [9] and 26 to 50% under setting [11]. In addition, the pest or weed control at 100 ppm under setting [10] was in the range of 76 to 100% and the pest or weed control at 100 ppm under setting [12] lay in the range of 76 to 100%.
As for `CCCCCCOc1ncc(F)c(NCO)n1` [Compound 99], the pest or weed control at 25 ppm was 0 to 25% under setting [13] and 0 to 25% under setting [15]. Moreover, the pest or weed control at 100 ppm is, setting by setting: under setting [14], 76 to 100%; under setting [16], 51 to 75%.
With `Nc1nc(OCc2cccc(Cl)c2)ncc1F` [Compound 468], the pest or weed control at 25 ppm by setting is: under setting [9], 76 to 100%; under setting [11], 76 to 100%. Besides, the pest or weed control at 100 ppm runs as follows: under setting [10], 76 to 100%; under setting [12], 76 to 100%.
For the molecule `CNC(=S)Nc1nc(OCc2ccc(C)cc2)ncc1F` [Compound 182], the pest or weed control at 25 ppm under setting [9] was in the range of 76 to 100% and the pest or weed control at 25 ppm under setting [11] was in the range of 76 to 100%. Also, the pest or weed control at 100 ppm reads like this: under setting [10], 76 to 100%; under setting [12], 76 to 100%.
Consider `C=CCOC(=O)Nc1nc(OCc2ccccc2)ncc1F` [Compound 983], for which the pest or weed control at 25 ppm reads like this: under setting [1], 76 to 100%; under setting [2], 76 to 100%; under setting [3], 76 to 100%. Further, the pest or weed control at 100 ppm under setting [4] lay within 76 to 100%.
Regarding `O=C(Nc1ccccc1)Nc1nc(OCc2cccc(F)c2)ncc1F` [Compound 332], the pest or weed control at 25 ppm by setting is: under setting [9], 76 to 100%; under setting [11], 51 to 75%. In addition, the pest or weed control at 100 ppm under setting [10] fell in the range of 76 to 100% and the pest or weed control at 100 ppm under setting [12] lay within 26 to 50%.
Turning to `CN(Cc1ccc(C(F)(F)F)cc1)c1nc(O)ncc1F` [Compound 1071], the pest or weed control at 25 ppm was 0 to 25% under setting [1], 26 to 50% under setting [2] and 26 to 50% under setting [3]. The pest or weed control at 100 ppm under setting [4] fell in the range of 26 to 50%.
Turning to `Fc1cnc(OCC(F)(F)F)nc1NCc1ccc(Cl)nc1` [Compound 915], for the setting “24 h, one day protectant”, the pest or weed control at 50 ppm was 0 to 25% and the pest or weed control at 200 ppm fell in the range of 0 to 25%.
Regarding `CN1CCC/C1=N\c1nc(OCc2ccc(F)cc2)ncc1F` [Compound 274], the pest or weed control at 25 ppm is, setting by setting: under setting [9], 76 to 100%; under setting [11], 76 to 100%. The pest or weed control at 100 ppm under setting [10] was 76 to 100% and the pest or weed control at 100 ppm under setting [12] lay within 76 to 100%.
`CCOCNc1nc(OCc2ccc(F)cc2)ncc1F` [Compound 257]: the pest or weed control at 25 ppm under setting [9] was 51 to 75% and the pest or weed control at 25 ppm under setting [11] lay in the range of 51 to 75%. For the same molecule, the pest or weed control at 100 ppm runs as follows: under setting [10], 76 to 100%; under setting [12], 76 to 100%.
For the molecule `Fc1cnc(OCc2ccccc2)nc1NNC1CCCCC1` [Compound 493], the pest or weed control at 25 ppm runs as follows: under setting [9], 0 to 25%; under setting [11], 0 to 25%. Moreover, the pest or weed control at 100 ppm is, setting by setting: under setting [10], 26 to 50%; under setting [12], 0 to 25%.
With `COc1ncc(F)c(NOCc2ccc([N+](=O)[O-])cc2)n1` [Compound 1073], the pest or weed control at 25 ppm runs as follows: under setting [1], 26 to 50%; under setting [2], 0 to 25%; under setting [3], 0 to 25%. In addition, the pest or weed control at 100 ppm under setting [4] lay within 0 to 25%.
With `COc1ncc(F)c(N)n1` [Compound 850], under “24 h, one day protectant”, the pest or weed control at 50 ppm was in the range of 0 to 25% and the pest or weed control at 200 ppm is 51 to 75%.
Under “24 h, one day protectant”, `Fc1ccccc1CNc1nc(OCc2ccc(OC(F)(F)F)cc2)ncc1F` [Compound 953] returned a pest or weed control at 50 ppm of 26 to 50% and a pest or weed control at 200 ppm of 76 to 100%.
Turning to `COCCOC(=O)Oc1ncc(F)c(/N=C/N(C)C)n1` [Compound 389], the pest or weed control at 25 ppm is 76 to 100% under setting [9] and 76 to 100% under setting [11]. The pest or weed control at 100 ppm runs as follows: under setting [10], 76 to 100%; under setting [12], 76 to 100%.
Regarding `CN(C)/C=N/c1nc(OC(=O)OCc2ccccc2Cl)ncc1F` [Compound 789], the pest or weed control at 25 ppm under setting [9] was 76 to 100% and the pest or weed control at 25 ppm under setting [11] fell in the range of 76 to 100%. Further, the pest or weed control at 100 ppm was in the range of 76 to 100% under setting [10] and 76 to 100% under setting [12].
Turning to `CCCNC(=S)Nc1nc(OCc2ccc(C)cc2)ncc1F` [Compound 48], the pest or weed control at 25 ppm lay within 76 to 100% under setting [13] and 76 to 100% under setting [15]. Moreover, the pest or weed control at 100 ppm by setting is: under setting [14], 76 to 100%; under setting [16], 76 to 100%.
With `ONc1nc(OCc2ccccc2)ncc1F` [Compound 390], the pest or weed control at 25 ppm under setting [9] fell in the range of 76 to 100% and the pest or weed control at 25 ppm under setting [11] is 76 to 100%. Besides, the pest or weed control at 100 ppm under setting [10] was 76 to 100% and the pest or weed control at 100 ppm under setting [12] lay in the range of 76 to 100%.
As to `CN(Cc1ccccc1)c1nc(O)ncc1F` [Compound 957, 4-(Benzylmethylamino)-5-fluoropyrimidin-2-ol], the pest or weed control at 25 ppm reads like this: under setting [1], 0 to 25%; under setting [2], 0 to 25%; under setting [3], 26 to 50%. Besides, the pest or weed control at 100 ppm under setting [4] fell in the range of 26 to 50%.
With `Fc1cnc(OCc2ccccc2)nc1NNc1cccc(C(F)(F)F)c1` [Compound 1029], the pest or weed control at 25 ppm runs as follows: under setting [1], 0 to 25%; under setting [2], 0 to 25%; under setting [3], 0 to 25%. Moreover, the pest or weed control at 100 ppm under setting [4] lay within 0 to 25%.
As for `COc1ccc(Br)c(COc2ncc(F)c(N)n2)c1F` [Compound 224], the pest or weed control at 25 ppm under setting [9] fell in the range of 26 to 50% and the pest or weed control at 25 ppm under setting [11] is 0 to 25%. The pest or weed control at 100 ppm under setting [10] lay within 76 to 100% and the pest or weed control at 100 ppm under setting [12] is 26 to 50%.
As for `CCOC(=O)COC(=O)Nc1nc(OCc2ccccc2)ncc1F` [Compound 134], the pest or weed control at 25 ppm by setting is: under setting [13], 0 to 25%; under setting [15], 51 to 75%. Further, the pest or weed control at 100 ppm under setting [14] lay within 51 to 75% and the pest or weed control at 100 ppm under setting [16] was in the range of 76 to 100%.
Take `C=CCOc1ncc(F)c(NO[Si](C)(C)C(C)(C)C)n1` [Compound 1075]: the pest or weed control at 25 ppm runs as follows: under setting [1], 0 to 25%; under setting [2], 0 to 25%; under setting [3], 0 to 25%. Also, the pest or weed control at 100 ppm under setting [4] was in the range of 0 to 25%.
Consider `C/C(=N\Oc1ncc(F)c(N)n1)c1cnc(OCC(F)(F)F)nc1` [Compound 1001], for which the pest or weed control at 25 ppm lay within 26 to 50% under setting [1], 76 to 100% under setting [2] and 26 to 50% under setting [3]. Further, under setting [4], the pest or weed control at 100 ppm lay in the range of 76 to 100%.
In the case of `O/N=C\Nc1nc(OCc2ccc(F)cc2)ncc1F` [Compound 22, N-[5-Fluoro-2-(4-fluorobenzyloxy)pyrimidin-4-yl]-N′-hydroxy-formamidine], the pest or weed control at 25 ppm is, setting by setting: under setting [13], 76 to 100%; under setting [15], 76 to 100%. For the same molecule, the pest or weed control at 100 ppm fell in the range of 76 to 100% under setting [14] and 76 to 100% under setting [16].
Consider `Cc1ccc(COc2ncc(F)c(N)n2)cc1F` [Compound 232], for which the pest or weed control at 25 ppm is 76 to 100% under setting [9] and 76 to 100% under setting [11]. Also, the pest or weed control at 100 ppm runs as follows: under setting [10], 76 to 100%; under setting [12], 76 to 100%.
Consider `OCNc1nc(OCc2ccccc2)ncc1F` [Compound 677], for which the pest or weed control at 25 ppm is, setting by setting: under setting [5], 76 to 100%; under setting [7], 76 to 100%. In addition, the pest or weed control at 100 ppm under setting [6] fell in the range of 76 to 100% and the pest or weed control at 100 ppm under setting [8] was 76 to 100%.
Regarding `Nc1nc(Oc2ccccc2Cl)ncc1F` [Compound 551], under setting [5], the pest or weed control at 25 ppm was 0 to 25%. For the same molecule, the pest or weed control at 100 ppm under setting [6] lay in the range of 26 to 50%.
Take `CC(=O)Nc1nc(OCc2ccc(F)cc2)ncc1F` [Compound 52]: the pest or weed control at 25 ppm by setting is: under setting [13], 76 to 100%; under setting [15], 51 to 75%. Moreover, the pest or weed control at 100 ppm was 76 to 100% under setting [14] and 51 to 75% under setting [16].
Turning to `CCCNC(=O)Nc1nc(OCc2ccn(C)n2)ncc1F` [Compound 114], the pest or weed control at 25 ppm by setting is: under setting [13], 0 to 25%; under setting [15], 0 to 25%. Besides, the pest or weed control at 100 ppm was 0 to 25% under setting [14] and 0 to 25% under setting [16].
